The numbers were not newly measured in patent EP3952993B1, “METHOD OF TREATING FUMARIC ACID ESTER-RESISTANT PLAQUE PSORIASIS” (Almirall S.A., priority 2019, dated 2020), which cites them from elsewhere.

SMILES strings stand for the structures. Structures can show the parent of a compound that is named as a salt.

This series has as its system patients diagnosed with moderate-to-severe psoriasis. Conditions: up to 720 mg/daily; 16 weeks; vs Fumaderm and placebo.

Regarding `COC(=O)/C=C/C(=O)OC` [DMF, dimethyl fumarate], the “co-primary endpoints: PASI 75 and clear/almost clear in the PGA” value is “significantly superior to placebo and non-inferior to FAEs”.
